# Test results published in EP0882732B1, “Taxoid derivative and method of producing thereof” (Ensuiko Sugar Refining Company, Limited, priority 1997, dated 1998).
# Tests used:
# [1] = Stability in aqueous solution; format: physicochemical; conditions: decomposed to paclitaxel
# Text: As clearly shown in the Table compared with paclitaxel, the solubility of paclitaxel derivatives show strikingly high values.
# [2] = Solubility in water (stirred in water, filtrate analysed by HPLC)
# Protocol: After stirring, the supernatant was filtered by a membrane filter (0.45µm) and a filtate was analyzed by HPLC.
# [3] = system: tubulin (a main constituting protein of the microtubule); test: Tubulin polymerization-promoting / depolymerization-inhibiting activity (absorbance at 350 nm); format: biochemical; conditions: for Depolymerization-inhibiting activity / Polymerization-promoting activity: relative activity, paclitaxel taken as 100, 5µM; for Depolymerization-inhibiting activity: absorbance at 350 nm 5 minutes after addition of calcium chloride; for Polymerization-promoting activity: tubulin, 37°C, 15 minutes, absorbance at 350 nm
# Protocol: Next, each of the above-described samples is mixed with tubulin (a main constituting protein of the microtubule) and allowed to react at 37°C for 15 minutes. Absorbance at 350 nm of the reaction solution was measured at 2, 5, 10 and 15 minutes after initiation of the reaction. Also, after the reaction ended, calcium chloride was added and. 5 minutes after its addition, absorbance at 350 nm was again measured. From each measured value the relative activity of each sample was determined such that polymerization-promoting activity and depolymerization - inhibiting activity were taken as 100, and the results are shown in Table 2.
# [4] = I.Ringer et al., J. Natl. Cancer Inst., 83, 288 (1991); cited from earlier work
# [5] = in water, 10 mg in 5 ml water, stirred for 18 hours, filtered 0.45µm, HPLC
SMILES,stability in aqueous solutions [1],solubility in water relative to paclitaxel [2] [times],"Solubility [2, 5] [µg/mL]",Depolymerization-inhibiting activity [3],Polymerization-promoting activity [3],"depolymerization-inhibiting activity compared with paclitaxel ([3]; statement in words, comparison with paclitaxel)",Solubility ([2]; 18 h) [µg/mL],"solubility at 18 h ([2]; water, thermodynamic from solid) [µg/mL]",solubility of docetaxel in water relative to paclitaxel [4] [times]
"CC(=O)O[C@H]1C(=O)[C@]2(C)[C@@H](OC(=O)COC3O[C@H](CO)[C@@H](O)[C@H](O)[C@H]3O)C[C@H]3OC[C@@]3(OC(C)=O)[C@H]2[C@H](OC(=O)c2ccccc2)[C@]2(O)C[C@H](OC(=O)[C@H](OC(=O)COC3O[C@H](CO)[C@@H](O)[C@H](O)[C@H]3O)[C@@H](NC(=O)c3ccccc3)c3ccccc3)C(C)=C1C2(C)C (some centres unmarked) [2',7-S-paclitaxel, Diglucosyloxyacetyl-2',7-paclitaxe]",unstable in aqueous solutions,121,48.4,77.7,40.5,,,,
"CC(=O)O[C@H]1C(=O)[C@@]2(C)[C@H]([C@H](OC(=O)c3ccccc3)[C@]3(O)C[C@H](OC(=O)[C@H](OC(=O)COC4O[C@H](CO)[C@@H](O)[C@H](O)[C@H]4O)[C@@H](NC(=O)c4ccccc4)c4ccccc4)C(C)=C1C3(C)C)[C@]1(OC(C)=O)CO[C@@H]1C[C@@H]2O (some centres unmarked) [2'-S-paclitaxel, Glucosyloxyacetyl-2'-paclitaxel]",unstable in aqueous solutions,76.5,30.6,100,52.7,,,,
"CC(=O)O[C@H]1C(=O)[C@]2(C)[C@@H](OC(=O)COC3O[C@H](CO)[C@@H](O)[C@H](O)[C@H]3O)C[C@H]3OC[C@@]3(OC(C)=O)[C@H]2[C@H](OC(=O)c2ccccc2)[C@]2(O)C[C@H](OC(=O)[C@H](O)[C@@H](NC(=O)c3ccccc3)c3ccccc3)C(C)=C1C2(C)C (some centres unmarked) [7-S-paclitaxel, Glucosyloxyacetyl-7-paclitaxel]",,36.8,14.7,225,91.9,more than twice as potent as that of paclitaxel,,,
"CC(=O)O[C@H]1C(=O)[C@@]2(C)[C@H]([C@H](OC(=O)c3ccccc3)[C@]3(O)C[C@H](OC(=O)[C@H](O)[C@@H](NC(=O)c4ccccc4)c4ccccc4)C(C)=C1C3(C)C)[C@]1(OC(C)=O)CO[C@@H]1C[C@@H]2O [Paclitaxel, reference compound]",,,,100,100,,0.4,0.4,
CC(=O)O[C@@]12CO[C@@H]1C[C@H](O)[C@@]1(C)C(=O)[C@H](O)C3=C(C)[C@@H](OC(=O)[C@H](O)[C@@H](NC(=O)OC(C)(C)C)c4ccccc4)C[C@@](O)([C@@H](OC(=O)c4ccccc4)[C@H]21)C3(C)C [docetaxel],,,,,,,,,1.3
